Data from US9873693B2 (Sunesis Pharmaceuticals, Inc., priority 2006, dated 2018).
Like-named read-outs stand apart in the source and are kept apart here.

Key:
phospho-akt (Thr308) = phospho-akt (Thr308) MSD ELISA in PC-3 cells; format: cell-based; details: Homo sapiens; for EC50: PC-3, 2 h; for inhibition at 1 µM / inhibition at 10 µM: read-out: Percent Inhibition of phospho-Akt (308) By MSD ELISA
Method in brief: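 Read-out is MSD electrochemiluminescence after lysate capture overnight at 4 degrees and 1 hr RT detection-antibody step. Before lysis, overnight-plated PC-3 cells received three-fold serial dilutions of inhibitor in serum-free medium, with DMSO-only high controls.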

phosphorylated PDK1 = phosphorylated PDK1 (Homo sapiens (Human), UniProt O15530); test: PDK1 kinase assay (coupled PDK1/AKT/FAM-crosstide, IMAP); format: biochemical; details: 0.5 nM phosphorylated PDK1, 24 μM ATP; read-out: Inhibition of phospo-PDK1 in vitro IC50
Sequence of phosphorylated PDK1 (O15530 51-360): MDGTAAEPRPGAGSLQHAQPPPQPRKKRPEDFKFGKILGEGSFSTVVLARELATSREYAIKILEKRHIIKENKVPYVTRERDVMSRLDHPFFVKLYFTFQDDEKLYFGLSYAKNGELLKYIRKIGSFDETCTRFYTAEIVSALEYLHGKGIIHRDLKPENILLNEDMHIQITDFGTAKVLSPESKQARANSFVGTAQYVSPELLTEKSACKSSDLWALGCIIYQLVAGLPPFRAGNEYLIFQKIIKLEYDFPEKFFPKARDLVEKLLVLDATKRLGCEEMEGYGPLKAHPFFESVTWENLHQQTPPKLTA

dephosphorylated PDK1 = dephosphorylated PDK1 (Homo sapiens (Human), UniProt O15530); test: as above; format: biochemical; details: 25 nM un-phosphorylated PDK1, 24 μM ATP; read-out: Inhibition of dephospo-PDK1 in vitro IC50
Sequence of dephosphorylated PDK1 (O15530 51-360): as above
Method: A PDK1 kinase assay was performed as follows. PDK1 (amino acids 51-360) and AKT2 (amino acids 140-467 fused to PIFtide, amino acids […]) were expressed as N-terminally tagged GST fusion proteins in insect cells and purified to greater than 90% homogeneity. PDK1 protein was divided into two fractions, one of which was subsequently dephosphorylated. To generate dephosphorylated PDK1, the PDK1 was reacted with GST-tagged lambda-phosphatase in vitro. GST was subsequently cleaved proteolytically for both phosphorylated and dephosphorylated PDK1. Protein preparations were run on glutathione Sepharose columns to remove GST and GST-tagged lambda-phosphatase, if present. Phosphorylated PDK1 and dephosphorylated PDK1 were verified by mass-spectrometry. Enzyme activity was determined in a coupled PDK1/AKT/FAM-crosstide assay using either phosphorylated or unphosphorylated PDK1 and phosphorylation of FAM-crosstide was determined by standard IMAP protocol (Molecular Devices). For inhibition studies, compounds were titrated 3-fold in DMSO and diluted 40-fold into assay buffer (10 mM Tris HCl pH7.2; 10 mM MgCl2; 0.01% Triton X-100; 1 mM DTT) containing PDK1, AKT2, and FAM-crosstide. (final concentrations: 25 nM un-phosphorylated PDK1 or 0.5 nM phosphorylated PDK1, 30 nM unphosphorylated AKT2, and 100 nM crosstide substrate). The kinase reaction was initiated by adding ATP to a final concentration of 24 μM for both forms of PDK1 and incubated at 25° C. for 30 min. To detect assay product, the kinase reaction was combined with Progressive Binding Solution (1:600 Progressive Binding Reagent, 50% Buffer A, 50% Buffer B, Molecular Devices) in a 1:3 ratio. The mixture was incubated for 2 hours at 25° C. and the plate was scanned on an Analyst AD with excitation at 485 nm and emission at 530 nm. The fluorescence polarization value “P” is defined by the equation below. The value “mP” is generated by multiplying the P value for each reaction well by a factor of 1000. The value “ΔmP” for each well is the mP value for that well minus the mP value for the average negative control. P=(Fpar−Fperp)/(Fpar+Fperp) Eq.:
Where “par” is fluorescence intensity parallel to the excitation plane; and “perp” is fluorescence intensity perpendicular to the excitation plane. ΔmP values were plotted as a function of compound concentration and the data were analyzed with a 4-parameter fit using GraphPad Prism software.

[1] = PC-3 cells, 2 hours, no serum, read-out: Inhibition of P308 Akt in cells using MSD EC50
[2] = PC-3 cells, 2 hours, no serum, read-out: Reduction of Cellular Levels of Akt p308 By MSD ELISA (EC50 μM)

| Compound | EC50 (phospho-akt (Thr308); [1]) | IC50 (phosphorylated PDK1) | IC50 (dephosphorylated PDK1) | EC50 (phospho-akt (Thr308); [2]) | inhibition at 1 µM (phospho-akt (Thr308); PC-3 cells) | inhibition at 10 µM (phospho-akt (Thr308); PC-3 cells) | EC50 (phospho-akt (Thr308); read-out: Reduction of Cellular Levels of Akt p308 By MSD ELISA (EC50 μM)) |
| --- | --- | --- | --- | --- | --- | --- | --- |
| O=C(NCCOc1ccc2cc[nH]c2c1)c1cccn(Cc2ccc(F)c(F)c2)c1=O [Cpd 179] | > 5 µM | 500 to 10000 nM | 500 to 10000 nM |  |  |  |  |
| O=C(NCc1noc(-c2ccc3ncnn3c2)n1)c1cccn(Cc2ccc(F)c(F)c2)c1=O [Cpd 235] |  | 500 to 10000 nM | < 500 nM | > 5 µM |  |  |  |
| COC(=O)C[C@@H](NC(=O)c1cccn(Cc2ccc(F)c(F)c2)c1=O)c1ccc(-c2c[nH]c3ncccc23)s1 [Cpd 236] |  | 500 to 10000 nM | < 500 nM | > 5 µM |  |  |  |
| CNc1nc(-c2cccc(CNC(=O)c3cccn(Cc4ccc(F)c(F)c4)c3=O)c2)cn2ccnc12 [Cpd 326] | > 5 µM | 500 to 10000 nM | 500 to 10000 nM |  |  |  |  |
| O=C(NCc1cccc(-c2ccc3ncnn3c2)c1)c1cccn(Cc2ccc(F)c(F)c2)c1=O [Cpd 3] |  | < 500 nM | < 500 nM | 1 to 5 µM | < 25% | > 75% |  |
| O=C(N[C@H](COc1ccc2[nH]c(=O)[nH]c2c1)c1ccc(F)cc1)c1cccn(Cc2ccc(C(F)(F)F)cc2)c1=O [Cpd 148] | 1 to 5 µM | < 500 nM | < 500 nM | 1 to 5 µM |  |  |  |
| O=C(NCc1ccc(-c2cccc3[nH]ncc23)s1)c1cccn(Cc2ccc(F)c(F)c2)c1=O [Cpd 58] | 1 to 5 µM | < 500 nM | < 500 nM |  |  |  |  |
| O=C(NCc1noc(-c2c[nH]c3ncccc23)n1)c1cc(Cl)cn(Cc2ccc(Cl)c(F)c2)c1=O [Cpd 316] |  | < 500 nM | < 500 nM |  | 25 to 75% | 25 to 75% |  |
| O=C(NCc1nnc(-c2c[nH]c3ncccc23)o1)c1cccn(Cc2ccc(F)c(F)c2)c1=O [Cpd 125] | 1 to 5 µM | < 500 nM | < 500 nM | 1 to 5 µM | 25 to 75% | > 75% |  |
| O=C(NCc1ccc(-c2ccc3[nH]ncc3c2)s1)c1cccn(Cc2ccc(F)c(F)c2)c1=O [Cpd 52] | 1 to 5 µM | < 500 nM | < 500 nM |  |  |  |  |
| CC(C)[C@@H](COc1ccc2[nH]c(=O)[nH]c2c1)NC(=O)c1cccn(Cc2ccc(F)c(F)c2)c1=O [Cpd 320] |  | 500 to 10000 nM | < 500 nM |  | < 25% | 25 to 75% |  |
| O=C(NCCOc1ccc2c(c1)[nH]c(=O)n2C1CC1)c1cccn(Cc2ccc(F)c(F)c2)c1=O [Cpd 282] | > 5 µM | < 500 nM | < 500 nM |  | < 25% | 25 to 75% |  |
| O=C(NCc1cc(-c2c[nH]c3ncccc23)[nH]n1)c1cccn(Cc2cc(F)c(F)c(F)c2)c1=O [Cpd 152] | 1 to 5 µM | < 500 nM | < 500 nM |  |  |  |  |
| Nc1cc(C(=O)NCc2noc(-c3c[nH]c4ncccc34)n2)c(=O)n(Cc2cc(F)c(F)c(F)c2)c1 [Cpd 187] | > 5 µM | < 500 nM | < 500 nM |  |  |  |  |
| NC(=O)CC[C@@H](NC(=O)c1cccn(Cc2ccc(F)c(F)c2)c1=O)c1nc(-c2c[nH]c3ncccc23)cs1 [Cpd 318] |  | < 500 nM | < 500 nM |  | < 25% | 25 to 75% |  |
| O=C(N[C@H]1CC[C@@H](c2c[nH]c3ncccc32)CC1)c1cccn(Cc2ccc(F)c(F)c2)c1=O [Cpd 1] | > 5 µM | < 500 nM | < 500 nM | > 5 µM |  |  |  |
| O=C(Nc1cccc(Cc2c[nH]c3ncccc23)c1)c1cccn(Cc2ccc(F)c(F)c2)c1=O [Cpd 128] | > 5 µM | 500 to 10000 nM | < 500 nM |  |  |  |  |
| O=C(NCc1ccc(-c2n[nH]c3ncccc23)s1)c1cccn(Cc2ccc(F)c(F)c2)c1=O [Cpd 7] | < 1 µM | < 500 nM | < 500 nM | < 1 µM | 25 to 75% | > 75% |  |
| O=C(NCc1noc(-c2c[nH]c3ncccc23)n1)c1cc(Cl)cn(Cc2ccc(F)c(F)c2)c1=O [Cpd 314] | > 5 µM | < 500 nM | < 500 nM |  | 25 to 75% | > 75% |  |
| O=C(N[C@H](CCCO)c1nc(-c2c[nH]c3ncccc23)c[nH]1)c1cccn(Cc2ccc(F)c(F)c2)c1=O [Cpd 313] |  | < 500 nM | < 500 nM |  | 25 to 75% | 25 to 75% |  |
| Cc1ccc(NC(=O)c2cccn(Cc3ccc(F)c(F)c3)c2=O)cc1-c1ccc2[nH]c(=O)[nH]c2c1 [Cpd 167] | > 5 µM | 500 to 10000 nM | 500 to 10000 nM |  |  |  |  |
| CN(C)C(=O)C[C@@H](NC(=O)c1cccn(Cc2ccc(F)c(F)c2)c1=O)c1ccc(-c2c[nH]c3ncccc23)s1 [Cpd 237] | > 5 µM | < 500 nM | < 500 nM |  | < 25% | 25 to 75% |  |
| O=C(C[C@@H](NC(=O)c1cccn(Cc2ccc(F)c(F)c2)c1=O)c1nnc(-c2c[nH]c3ncccc23)o1)NCCO [Cpd 297] |  | < 500 nM | < 500 nM |  | < 25% | < 25% |  |
| O=C(NCc1cnc(-c2c[nH]c3ncccc23)s1)c1cccn(Cc2ccc(Cl)c(Cl)c2)c1=O [Cpd 323] | 1 to 5 µM | < 500 nM | < 500 nM | 1 to 5 µM |  |  |  |
| O=C(NCc1cccc(-c2ccc(=O)[nH]c2)c1)c1cccn(Cc2ccc(F)c(F)c2)c1=O [Cpd 220] |  | 500 to 10000 nM | 500 to 10000 nM |  | 25 to 75% | 25 to 75% |  |
| CNc1nc(-c2ccc(CNC(=O)c3cccn(Cc4ccc(F)c(F)c4)c3=O)s2)cn2ccnc12 [Cpd 325] | > 5 µM | 500 to 10000 nM | < 500 nM |  |  |  |  |
| O=C(NCc1noc(-c2c[nH]c3ncccc23)n1)c1cc(Cl)cn(Cc2ccc(F)cc2)c1=O [Cpd 319] | > 5 µM | < 500 nM | < 500 nM |  | < 25% | 25 to 75% |  |
| O=C(O)C[C@@H](NC(=O)c1cccn(Cc2ccc(F)c(F)c2)c1=O)c1ccc(-c2c[nH]c3ncccc23)s1 [Cpd 15] |  | < 500 nM | < 500 nM |  |  |  | > 5 µM |
